Laboratory results published in US10689377B2 (Mirati Therapeutics, Inc., priority 2017, dated 2020).
Read-outs that look alike come from different tables or passages of the source.

Key:
[1] = In vitro stability in human whole blood; type: in vitro ADME; conditions: male, whole blood diluted to 50% with PBS, pH 7.4, human whole blood diluted to 50% with PBS, 5 μM, 37° C., 240-minute incubation, read-out: Compound Half-life
Excerpt: Materials: The following reagents were used as received: acetonitrile (HPLC grade, Burdick & Jackson, Madison, Wis.), phosphate buffered saline (PBS), pH 7.4 (Sigma-Aldrich, Co., St. Louis, Mo.), water (HPLC grade, JT Baker, Phillipsburg, N.J.), DMSO (EM Science, Merck KGaA, Darmstadt, Germany) and isopropanol (IPA, reagent grade, EMD Chemicals, Gibbstown, N.J.). Propantheline and esmolol (Sigma-Aldrich) were used as the positive control compounds in the assay. Diazepam (Sigma-Aldrich) was used as an internal standard for quantitation. Human whole blood was obtained from BioIVT (Westbury, N.Y.) […]. All other reagents and solvents were of the highest analytical grade supplied by Sigma (St. Louis, Mo.) and were used as received.
Blood Incubations: The in vitro stability of representative KRas G12C inhibitor compounds of the present invention in the presence whole blood was conducted in the following manner. Esmolol or propantheline, which are known to undergo ester hydrolysis by esterases in blood and plasma, were used as the positive controls in the assays. A 10 mM stock solution of propantheline, esmolol, or a compound of the present invention in DMSO was diluted to 500 μM with DMSO. Aliquots of whole blood (600 μL), in triplicate, were placed in the appropriate wells of a polypropylene 96-deep well plate (Axygen Scientific, Union City, Calif.). The blood was diluted to 50% using PBS, pH 7.4 (600 μL). The diluted blood was pre-incubated for 15 minutes at 37° C. Each well was dosed with 12 μL of the 500 μM DMSO stock simultaneously for a final test concentration of 5 μM. The plates were mixed at 600 rpm for 10 seconds on a plate shaker (IKA MTS 2/4 Digital Microtiter Shaker, VWR). Aliquots of 100 μL from each well of whole blood were transferred to three separate 96-deep well plates labeled 0, 60, or 240 minutes. At the end of each designated time point, the red blood cells were lysed with 100 μL of water, mixed at 600 rpm for one minute, and stopped with 800 μL of acetonitrile containing IS (0.625 μM diazepam). The plates were mixed on the plate shaker at 600 rpm for one minute and spun in a centrifuge at 2095×g for 7 minutes at room temperature using an Allegra benchtop centrifuge (Beckman Coulter, Fullerton, Calif.). Supernatant (100 μL) was transferred to a shallow 96-well plate (Costar) using a liquid sample handling system (Apricot, Perkin-Elmer, Boston, Mass.). The addition of 100 μL of water was added to each sample of supernatant for a final volume of 200 μL. The plates were sealed and the contents of each well were analyzed by LC-MS/MS.
Analytical quantitation: The LC-MS/MS system was comprised of an HTS-PAL autosampler (Leap Technologies, Carrboro, N.C.), an HP1200 HPLC (Agilent, Palo Alto, Calif.), and an API4000 triple quadrupole mass spectrometer (PE Sciex, a division of Applied Biosystems, Foster City, Calif.). […] The total run time, including re-equilibration, for a single injection was 2 minutes. Mass spectrometric detection of the analytes was accomplished using the ESI ionization mode. Ion current was optimized during infusion of a stock solution of propantheline, esmolol, or the representative test compound. Analyte responses, including the IS were measured by multiple reaction monitoring (MRM) of transitions unique to each compound.
Calculations: Data were acquired and peak areas were calculated for test compounds and the internal standard using Analyst 1.6.2 software (Sciex). The mean peak area ratios were calculated by averaging the peak area ratios (n=3) of each test compound and the IS for each sample.
Peak area tables were exported to BioAssay Enterprise (CambridgeSoft, Cambridge, Mass.), where the average analyte-to-internal standard peak area ratios were used to calculate percent remaining (% REM) and half-life (t1/2). Percent remaining (f) was calculated by determining the ratio of the peak area ratio at each time point to the peak area ratio of the time-zero samples. […]

KRas G12C [2] = target: KRas G12C (Homo sapiens, UniProt P01116, C118S/C51S/C80L/G12C); test: KRas G12C Modification Assay (LCMS detection of covalent adduct); type: binding
In short: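 Intact protein analysed by LC/MS with deconvolution; unmodified protein signal normalized to no-compound control and reported as percent of control (POC).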

KRas G12C [3] = target: KRas G12C (Homo sapiens, UniProt P01116, G12C); test: Cellular inhibition of KRas G12C measured by Phospho-ERK in NCI-H358 cells; type: cell-based
In short: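 Following 8-12 h attachment, NCI-H358 cells got serially diluted compound (0.5% DMSO) for 3 hours. Cells were then fixed, permeabilized with cold methanol, and stained for pERK(Thr202/Tyr204) and GAPDH. Ratios were converted to percent of DMSO control, with IC50 obtained by four-parameter regression.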

[4] = normalized percent of control, 5 μM concentration for 3 hours
[5] = pERK(Thr202/Tyr204) normalized with GAPDH, NCI-H358 cells, 3 hours, read-out: IC50

Compound	half-life at 5 µM [1] [h]	POC (KRas G12C [2]; [4])	IC50 (KRas G12C [3]; [5]) [nM]	POC (KRas G12C [2]; 5 µM)	IC50 (KRas G12C [3]; IC50) [nM]
C=C(F)C(=O)N1CCN(c2nc(OC[C@@H]3CCCN3C)nc3c2CCN(c2cccc4cccc(Cl)c24)C3)C[C@@H]1CC#N [Example 478, 2-[(2S)-4-[7-(8-chloro-1-naphthyl)-2-[[(2S)-1-methylpyrrolidin-2-yl]methoxy]-6,8-dihydro-5H-pyrido[3,4-d]pyrimidin-4-yl]-1-(2-fluoroprop-2-enoyl)piperazin-2-yl]acetonitrile]	> 33.3	–	–	–	–
C=CC(=O)N1CCN(c2nc(OCCCN3CC4CC4C3)nc3c2CCN(c2cc(O)cc4ccccc24)C3)CC1 (stereo not shown) [Example 206, 1-(4-(2-(3-(3-azabicyclo[3.1.0]hexan-3-yl)propoxy)-7-(3-hydroxynaphthalen-1-yl)-5,6,7,8-tetrahydropyrido[3,4-d]pyrimidin-4-yl)piperazin-1-yl)prop-2-en-1-one]	–	C (“C”>50% POC)	0.1 to 1000	–	–
C=CC(=O)N1CCN(c2nc(OCCN(C)C)nc3c2CCN(c2cc(O)cc4ccccc24)C3)CC1CCO (stereo not shown) [Example 171, 1-(4-(2-(2-(dimethylamino)ethoxy)-7-(3-hydroxynaphthalen-1-yl)-5,6,7,8-tetrahydropyrido[3,4-d]pyrimidin-4-yl)-2-(2-hydroxyethyl)piperazin-1-yl)prop-2-en-1-one]	–	–	–	C (key: “A”≤25% POC; “B”>25% POC-≤50% POC; “C”>50% POC)	> 1000
CN1CCC[C@H]1COc1nc2c(c(N3CCN(C(=O)/C=C/CN4CCC(F)(F)C4)[C@@H](CC#N)C3)n1)CCN(c1cccc(Cl)c1C(F)(F)F)C2 [Example 471, 2-[(2S)-4-[7-[3-chloro-2-(trifluoromethyl)phenyl]-2-[[(2S)-1-methylpyrrolidin-2-yl]methoxy]-6,8-dihydro-5H-pyrido[3,4-d]pyrimidin-4-yl]-1-[(E)-4-(3,3-difluoropyrrolidin-1-yl)but-2-enoyl]piperazin-2-yl]acetonitrile]	–	C (“C”>50% POC)	> 1000	–	–
C=CC(=O)N1CCN(c2nc(OCCCN3CCOCC3)nc3c2CCN(c2c(C)c(O)cc4ccccc24)C3)CC1 [Example 173, 1-(4-(7-(3-hydroxy-2-methylnaphthalen-1-yl)-2-(3-morpholinopropoxy)-5,6,7,8-tetrahydropyrido[3,4-d]pyrimidin-4-yl)piperazin-1-yl)prop-2-en-1-one]	–	C (“C”>50% POC)	> 1000	–	–
C=CC(=O)N1CCN(c2nc(OC[C@@H]3CCCN3C)nc3c2CCN(c2c(C)c(C)cc4[nH]ncc24)C3)C[C@@H]1CC#N [Example 462, 2-[(2S)-4-[7-(5,6-dimethyl-1H-indazol-4-yl)-2-[[(2S)-1-methylpyrrolidin-2-yl]methoxy]-6,8-dihydro-5H-pyrido[3,4-d]pyrimidin-4-yl]-1-prop-2-enoyl-piperazin-2-yl]acetonitrile]	–	C (“C”>50% POC)	0.1 to 1000	–	–

The next lines start with results.

half-life at 5 µM [1] [h]	POC (KRas G12C [2]; [4])	IC50 (KRas G12C [3]; [5]) [nM]	Compound	POC (KRas G12C [2]; 5 µM)	IC50 (KRas G12C [3]; IC50) [nM]
> 33.3	–	–	COC/C=C/C(=O)N1CCN(c2nc(OC[C@H]3C[C@@H](OC)CN3C)nc3c2CCN(c2cccc4cccc(C)c24)C3)C[C@@H]1CC#N [Example 552, 2-[(2S)-1-[(E)-4-methoxybut-2-enoyl]-4-[2-[[(2R,4R)-4-methoxy-1-methyl-pyrrolidin-2-yl]methoxy]-7-(8-methyl-1-naphthyl)-6,8-dihydro-5H-pyrido[3,4-d]pyrimidin-4-yl]piperazin-2-yl]acetonitrile]	–	–
> 33.3	–	–	C=C(F)C(=O)N1CCN(c2nc(OC[C@H]3CCCN3C)nc3c2CCN(c2cccc4cccc(Cl)c24)C3)C[C@@H]1CC#N [Example 557, 2-[(2S)-4-[7-(8-Chloro-1-naphthyl)-2-[[(2R)-1-methylpyrrolidin-2-yl]methoxy]-6,8-dihydro-5H-pyrido[3,4-d]pyrimidin-4-yl]-1-(2-fluoroprop-2-enoyl)piperazin-2-yl]acetonitrile]	–	–
–	C (“C”>50% POC)	0.1 to 1000	C=C(F)C(=O)N1CCN(c2nc(OCCN(C)C)nc3c2CCN(c2cccc4cccc(C)c24)C3)C[C@@H]1CC#N [Example 559, 2-[(2S)-4-[2-[2-(Dimethylamino)ethoxy]-7-(8-methyl-1-naphthyl)-6,8-dihydro-5H-pyrido[3,4-d]pyrimidin-4-yl]-1-(2-fluoroprop-2-enoyl)piperazin-2-yl]acetonitrile]	–	–
–	C (“C”>50% POC)	> 1000	C=C(F)C(=O)N1CCN(c2nc(SC[C@@H]3CCCN3C)nc3c2CCN(c2cccc4cccc(C)c24)C3)C[C@@H]1CC#N [Example 599, 2-((S)-1-(2-Fluoroacryloyl)-4-(7-(8-methylnaphthalen-1-yl)-2-((((S)-1-methylpyrrolidin-2-yl)methyl)thio)-5,6,7,8-tetrahydropyrido [3,4-d]pyrimidin-4-yl)piperazin-2-yl)acetonitrile]	–	–
–	C (“C”>50% POC)	0.1 to 1000	C=C(F)C(=O)N1CCN(c2nc(OC[C@@H]3CCCN3C)nc3c2CCN(c2cccc4ccnc(Cl)c24)C3)C[C@@H]1CC#N [Example 595, 2-((S)-4-(7-(1-chloroisoquinolin-8-yl)-2-(((S)-1-methylpyrrolidin-2-yl)methoxy)-5,6,7,8-tetrahydropyrido[3,4-d]pyrimidin-4-yl)-1-(2-fluoroacryloyl)piperazin-2-yl)acetonitrile]	–	–
–	C (“C”>50% POC)	0.1 to 1000	Cc1cccc2cccc(N3CCc4c(nc(OC[C@@H]5C[C@@H](F)CN5C)nc4N4CCN(C(=O)/C=C/CF)[C@@H](CC#N)C4)C3)c12 [Example 578, 2-[(2S)-1-[(E)-4-Fluorobut-2-enoyl]-4-[2-[[(2S,4R)-4-fluoro-1-methyl-pyrrolidin-2-yl]methoxy]-7-(8-methyl-1-naphthyl)-6,8-dihydro-5H-pyrido[3,4-d]pyrimidin-4-yl]piperazin-2-yl] acetonitrile]	–	–
–	C (“C”>50% POC)	0.1 to 1000	Cc1cccc2cccc(N3CCc4c(nc(OC[C@@H]5CC(F)(F)CN5C)nc4N4CCN(C(=O)/C=C/CF)[C@@H](CC#N)C4)C3)c12 [Example 529, 2-((S)-4-(2-(((S)-4,4-difluoro-1-methylpyrrolidin-2-yl)methoxy)-7-(8-methylnaphthalen-1-yl)-5,6,7,8-tetrahydropyrido[3,4-d]pyrimidin-4-yl)-1-((E)-4-fluorobut-2-enoyl)piperazin-2-yl)acetonitrile]	–	–
–	C (“C”>50% POC)	0.1 to 1000	C=C(F)C(=O)N1CCN(c2nc(OC[C@@H]3CCN(C)C3)nc3c2CCN(c2cccc4cccc(C)c24)C3)C[C@@H]1CC#N [Example 562, 2-[(2S)-1-(2-Fluoroprop-2-enoyl)-4-[7-(8-methyl-1-naphthyl)-2-[[(3R)-1-methylpyrrolidin-3-yl]methoxy]-6,8-dihydro-5H-pyrido[3,4-d]pyrimidin-4-yl]piperazin-2-yl]acetonitrile]	–	–
